Measured values taken from US20110105623A1 (Biogenic Innovations, LLC, priority 2009, published 2011).
Values joined by “and” are separate entries in the source; they are usually repeats but may differ in a detail not shown here. Equal values may be shown once.

Test system: Lactobacillus acidophilus
Test: Recovery from Acidophilus milk fortified with MSM into broth without MSM
Format: cell-based
Settings: for Recovery of Lactobacillus acidophilus in Milk fortified with MSM Day 14, initial start data: Day 14-0; for Lag Recovery of Lactobacillus acidophilus in Milk fortified with MSM Day 14 / Lag Recovery of Lactobacillus acidophilus in Milk fortified with MSM Day 21 / Lag Recovery of Lactobacillus acidophilus in Milk fortified with MSM Day 28 / Lag Recovery of Lactobacillus acidophilus in Milk fortified with MSM Day 7: duplicates; for Lag Recovery of Lactobacillus acidophilus in Milk fortified with MSM Day 21 / Lag Recovery of Lactobacillus acidophilus in Milk fortified with MSM Day 28: 0.50% MSM; for Lag Recovery of Lactobacillus acidophilus in Milk fortified with MSM Day 7: 5% MSM
Experimental: The Acidophilus milk was low fat (Darigold). […] All preparations and plating was conducted at room temperature.
The recovery study was run parallel to the study done on the affects of MSM on growth of Lactobacillus acidophilus in Acidophilus milk fortified with MSM. The recovery growth rate was analyzed on Day 7, Day 14, Day 21 and Day 28. For Table 27, the growth for Day x with no time is calculated from the initial growth study with the dilution factor into the log growth. […] Table 28 takes the value of 2.00 as the starting value.

Methylsulfonylmethane [MSM]
Recovery of Lactobacillus acidophilus in Milk fortified with MSM Day 7, initial start data (0.5% MSM): 8.68 logs
Recovery of Lactobacillus acidophilus in Milk fortified with MSM Day 7, average recovery (0.5% MSM, Day 7-24): 12.94 logs
Recovery of Lactobacillus acidophilus in Milk fortified with MSM Day 7, average recovery (0.5% MSM, Day 7-48): 12.69 logs
Recovery of Lactobacillus acidophilus in Milk fortified with MSM Day 7, average recovery (0.5% MSM, Day 7-72): 13.07 logs
Recovery of Lactobacillus acidophilus in Milk fortified with MSM Day 14, initial start data (0.5% MSM): 4.22 logs
Recovery of Lactobacillus acidophilus in Milk fortified with MSM Day 14, average recovery (0.5% MSM, Day 14-24): 10.15 logs
Lag Recovery of Lactobacillus acidophilus in Milk fortified with MSM Day 14 (0.5% MSM, Day 14-24): 10.19 logs and 10.10 logs
Recovery of Lactobacillus acidophilus in Milk fortified with MSM Day 14, average recovery (0.5% MSM, Day 14-48): 12.84 logs
Lag Recovery of Lactobacillus acidophilus in Milk fortified with MSM Day 14 (0.5% MSM, Day 14-48): 12.95 logs and 12.72 logs
Recovery of Lactobacillus acidophilus in Milk fortified with MSM Day 14, average recovery (0.5% MSM, Day 14-72): 12.86 logs
Lag Recovery of Lactobacillus acidophilus in Milk fortified with MSM Day 14 (0.5% MSM, Day 14-72): 13.02 logs and 12.70 logs
Recovery of Lactobacillus acidophilus in Milk fortified with MSM Day 21, initial start data (0.5% MSM): 3.37 logs
Recovery of Lactobacillus acidophilus in Milk fortified with MSM Day 21, average recovery (0.5% MSM, Day 21-24): 12.91 logs
Lag Recovery of Lactobacillus acidophilus in Milk fortified with MSM Day 21 (Day 21-24): 12.89 logs and 12.93 logs
Recovery of Lactobacillus acidophilus in Milk fortified with MSM Day 21, average recovery (0.5% MSM, Day 21-48): 13.02 logs
Lag Recovery of Lactobacillus acidophilus in Milk fortified with MSM Day 21 (Day 21-48): 12.94 logs and 13.1 logs
Recovery of Lactobacillus acidophilus in Milk fortified with MSM Day 21, average recovery (0.5% MSM, Day 21-72): 11.30 logs
Lag Recovery of Lactobacillus acidophilus in Milk fortified with MSM Day 21 (Day 21-72): 12.29 logs and 10.31 logs
Recovery of Lactobacillus acidophilus in Milk fortified with MSM Day 28, initial start data (0.5% MSM): 1.00 logs
Recovery of Lactobacillus acidophilus in Milk fortified with MSM Day 28, average recovery (0.5% MSM, Day 28-24): 6.29 logs
Lag Recovery of Lactobacillus acidophilus in Milk fortified with MSM Day 28 (Day 28-24): 6.11 logs and 6.47 logs
Recovery of Lactobacillus acidophilus in Milk fortified with MSM Day 28, average recovery (0.5% MSM, Day 28-48): 13.33 logs
Lag Recovery of Lactobacillus acidophilus in Milk fortified with MSM Day 28 (Day 28-48): 13.66 logs and 12.99 logs
Recovery of Lactobacillus acidophilus in Milk fortified with MSM Day 28, average recovery (0.5% MSM, Day 28-72): 13.00 logs
Lag Recovery of Lactobacillus acidophilus in Milk fortified with MSM Day 28 (Day 28-72): 12.99 logs and 13.01 logs
Day 7 log recovery growth rate increase from start time of zero (0.5% MSM, Hour 0): 0.00 logs
Day 14 log recovery growth rate increase from start time of zero (0.5% MSM, Hour 0): 0.00 logs
Day 21 log recovery growth rate increase from start time of zero (0.5% MSM, Hour 0): 0.00 logs
Day 7 log recovery growth rate increase from start time of zero (0.5% MSM, Hour 24): 4.26 logs
Day 14 log recovery growth rate increase from start time of zero (0.5% MSM, Hour 24): 5.93 logs
Day 21 log recovery growth rate increase from start time of zero (0.5% MSM, Hour 24): 9.54 logs
Day 7 log recovery growth rate increase from start time of zero (0.5% MSM, Hour 48): −0.26 logs
Day 14 log recovery growth rate increase from start time of zero (0.5% MSM, Hour 48): 2.69 logs
Day 21 log recovery growth rate increase from start time of zero (0.5% MSM, Hour 48): 0.11 logs
Day 7 log recovery growth rate increase from start time of zero (0.5% MSM, Hour 72): 0.39 logs
Day 14 log recovery growth rate increase from start time of zero (0.5% MSM, Hour 72): 0.03 logs
Day 21 log recovery growth rate increase from start time of zero (0.5% MSM, Hour 72): −1.72 logs
Day 28 log recovery growth rate increase from start time of zero (0.5% MSM, Time 0): 0.00 logs
Day 28 log recovery growth rate increase from start time of zero (0.5% MSM, Time 24): 5.29 logs
Day 28 log recovery growth rate increase from start time of zero (0.5% MSM, Time 48): 7.04 logs
Day 28 log recovery growth rate increase from start time of zero (0.5% MSM, Time 72): −0.32 logs
Recovery of Lactobacillus acidophilus in Milk fortified with MSM Day 7, initial start data (5.0% MSM): 8.71 logs
Recovery of Lactobacillus acidophilus in Milk fortified with MSM Day 7, average recovery (5.0% MSM, Day 7-24): 12.71 logs
Lag Recovery of Lactobacillus acidophilus in Milk fortified with MSM Day 7 (Day 7-24): 12.12 logs and 13.29 logs
Recovery of Lactobacillus acidophilus in Milk fortified with MSM Day 7, average recovery (5.0% MSM, Day 7-48): 13.17 logs
Lag Recovery of Lactobacillus acidophilus in Milk fortified with MSM Day 7 (Day 7-48): 13.09 logs and 13.25 logs
Recovery of Lactobacillus acidophilus in Milk fortified with MSM Day 7, average recovery (5.0% MSM, Day 7-72): 12.99 logs
Lag Recovery of Lactobacillus acidophilus in Milk fortified with MSM Day 7 (Day 7-72): 13.1 logs and 12.87 logs
recovery log growth lower than the control (5.0% MSM, Day 14, first 24 hours): 1.02 logs
Recovery of Lactobacillus acidophilus in Milk fortified with MSM Day 14, initial start data (5.0% MSM): 6.04 logs
Recovery of Lactobacillus acidophilus in Milk fortified with MSM Day 14, average recovery (5.0% MSM, Day 14-24): 9.60 logs
Lag Recovery of Lactobacillus acidophilus in Milk fortified with MSM Day 14 (5.0% MSM, Day 14-24): 9.6 logs
Recovery of Lactobacillus acidophilus in Milk fortified with MSM Day 14, average recovery (5.0% MSM, Day 14-48): 13.02 logs
Lag Recovery of Lactobacillus acidophilus in Milk fortified with MSM Day 14 (5.0% MSM, Day 14-48): 12.99 logs and 13.04 logs
Recovery of Lactobacillus acidophilus in Milk fortified with MSM Day 14, average recovery (5.0% MSM, Day 14-72): 12.43 logs
Lag Recovery of Lactobacillus acidophilus in Milk fortified with MSM Day 14 (5.0% MSM, Day 14-72): 12.65 logs and 12.21 logs
Recovery of Lactobacillus acidophilus in Milk fortified with MSM Day 21, initial start data (5.0% MSM): 3.56 logs
Recovery of Lactobacillus acidophilus in Milk fortified with MSM Day 21, average recovery (5.0% MSM, Day 21-24): 9.69 logs
Recovery of Lactobacillus acidophilus in Milk fortified with MSM Day 21, average recovery (5.0% MSM, Day 21-48): 13.08 logs
Recovery of Lactobacillus acidophilus in Milk fortified with MSM Day 21, average recovery (5.0% MSM, Day 21-72): 13.15 logs
Recovery of Lactobacillus acidophilus in Milk fortified with MSM Day 28, initial start data (5.0% MSM): 0.52 logs
Recovery of Lactobacillus acidophilus in Milk fortified with MSM Day 28, average recovery (5.0% MSM, Day 28-24): 5.56 logs
